According to patent US8865448B2, “Aspergillus containing beta-glucosidase, beta-glucosidases and nucleic acids encoding the same” (Cleanvantage LLC, priority 2010, dated 2014):

What was measured:
[1] = system: A. japonicus beta-glucosidase; conditions: cellobiose; cited from earlier work
[2] = system: A. niger NIAB280 beta-glucosidase; conditions: hydrolysis of cellobiose, 50° C., pH 5.0; cited from earlier work
[3] = system: Novozym 188 beta-glucosidase (Aspergillus niger), commercial preparation; assay: Michaelis-Menten kinetics with cellobiose, Novozym 188; format: biochemical; conditions: cellobiose as substrate, 50° C.
Description: (§1) In this work specific activity (U/mg) is defined as units per amount of total protein. […] The assay using 5 mM pNPG in NaCltrate buffer pH 4.8 was performed as previously described; enzyme samples were assayed at different concentrations in triple determination to ensure substrate saturation in the assay. […] The glucose concentration was measured at Dionex ICS3000 using gradient elution: 0-20% eluent B (0.5M NaAcetate in 100 mM NaOH) in 13 min followed by 2 min washing with 50% eluent B and 5 min re-equilibrating with 100% eluent A (100 mM NaOH). Samples were assayed at different concentrations in triple determination to ensure substrate saturation in the assay.
(§2) Triple determinations were performed. A substrate saturation curve was prepared by plotting substrate concentration [S] vs reaction rate, v. The Michealis Menten constants Km and Vmax were determined from Hanes-Wolf plots where substrate concentration [S] is plotted against substrate concentration over reaction rate [S]/v, and the linear relationship of the data gives a slope of 1/Vmax, a y-intercept of Km/Vmax, and an x-intercept of −Km.
(§3) Enzyme kinetics are preferably carried out on pure enzyme preparations, but are in this study used for the comparison of the beta-glucosidases of the crude enzyme extract of strain AP/Aspergillus saccharolyticus and the commercial enzyme preparation Novozym 188 and Cellic CTec. […]

[4] = system: A. niger BKMF-1305 beta-glucosidase; conditions: cited from earlier work
[5] = system: A. carbonarius KLU-93 beta-glucosidase; conditions: cited from earlier work
[6] = target: T1, Aspergillus saccharolyticus CBS 127449 beta-glucosidase BGL1, his-tagged, expressed in T. reesei, SEQ ID NO: 3 (without signal peptide SEQ ID NO: 4) (Aspergillus saccharolyticus, UniProt G0X2F9); assay: Michaelis-Menten kinetics with cellobiose, purified BGL1; format: biochemical; conditions: cellobiose as substrate, 50° C., pH 4.8, Hanes plot
T1 construct: mature form lacks signal peptide 1-19
T1 sequence (G0X2F9 20-860): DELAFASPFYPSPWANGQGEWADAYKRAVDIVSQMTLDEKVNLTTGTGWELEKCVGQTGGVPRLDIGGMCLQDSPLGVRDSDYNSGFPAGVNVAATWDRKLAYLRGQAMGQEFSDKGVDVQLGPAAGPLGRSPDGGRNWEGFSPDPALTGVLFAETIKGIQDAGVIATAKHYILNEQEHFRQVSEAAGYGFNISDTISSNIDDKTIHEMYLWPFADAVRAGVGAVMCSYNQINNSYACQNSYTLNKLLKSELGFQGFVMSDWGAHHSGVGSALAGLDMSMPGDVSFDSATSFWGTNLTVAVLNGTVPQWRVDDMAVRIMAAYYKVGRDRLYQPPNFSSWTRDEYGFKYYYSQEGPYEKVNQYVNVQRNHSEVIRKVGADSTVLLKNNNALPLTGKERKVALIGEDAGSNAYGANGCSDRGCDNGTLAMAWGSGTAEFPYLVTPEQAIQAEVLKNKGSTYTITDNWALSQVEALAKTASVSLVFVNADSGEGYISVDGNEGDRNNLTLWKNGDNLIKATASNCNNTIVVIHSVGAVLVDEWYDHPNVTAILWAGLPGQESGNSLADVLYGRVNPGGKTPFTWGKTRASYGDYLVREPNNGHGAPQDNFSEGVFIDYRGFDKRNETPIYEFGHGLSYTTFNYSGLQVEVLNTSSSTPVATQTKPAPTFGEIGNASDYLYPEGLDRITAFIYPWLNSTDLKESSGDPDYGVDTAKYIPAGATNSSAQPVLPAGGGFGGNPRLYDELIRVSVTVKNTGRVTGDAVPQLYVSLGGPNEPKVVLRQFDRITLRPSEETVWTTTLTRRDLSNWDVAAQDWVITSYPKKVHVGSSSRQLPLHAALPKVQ
Description: In this work specific activity (U/mg) is defined as units per amount of total protein. […] The assay using 5 mM pNPG in NaCltrate buffer pH 4.8 was performed as previously described; enzyme samples were assayed at different concentrations in triple determination to ensure substrate saturation in the assay. […] Samples were assayed at different concentrations in triple determination to ensure substrate saturation in the assay.

[7] = system: A. niger beta-glucosidases; conditions: cellobiose; general literature search; cited from earlier work
[8] = system: A. phoenicis QM329 beta-glucosidase; conditions: cited from earlier work
[9] = system: Aspergillus saccharolyticus (strain AP, CBS 127449) beta-glucosidases, crude enzyme extract; assay: Michaelis-Menten kinetics with cellobiose, crude solid state fermentation extract of strain AP; format: biochemical; conditions: cellobiose as substrate, 50° C.
Description: The fungal strain AP/Aspergillus saccharolyticus was grown on potato dextrose agar (Sigma) for sporulation. Spores were harvested after 7 days of growth by adding sterile water to the plate and scrape on the surface of the culture. The heavy spore suspension was filtered through Myra cloth. Two ml of the spore solution was inoculated into 200 ml seed medium (2.0 g/l wheat bran, 5 g/l corn steep powder, 0.25 g/l yeast extract, 0.75 g/l peptone, 1.4 g/l (NH4)2SO4, 2.0 g/l KH2PO4, 0.4 g/l CaCl2 2H2O, 0.3 g/l MgSO4H2O, 5.0 mg/l FeSO4, 1.6 mg/l MnSO4 7H2O, 1.4 mg/l ZnSO4 7H2O, 2.0 CoCl2 6H2O) in an 500 ml Erlenmeyer flask, and incubated at 30° C. for 2 days, shaking at 160 rpm. […] The samples were incubated at 30° C. without shaking. After 7 days incubation, liquid was extracted from the medium by pressing the medium by hand using gloves. The extract was centrifuged at 10000 g, and the supernatant filtered through Whatman filter paper. In this work specific activity (U/mg) is defined as units per amount of total protein. […] Samples were assayed at different concentrations in triple determination to ensure substrate saturation in the assay. […] Triple determinations were performed. A substrate saturation curve was prepared by plotting substrate concentration [S] vs reaction rate, v. […]

[10] = system: Cellic CTec beta-glucosidases, commercial preparation; assay: Michaelis-Menten kinetics with cellobiose, Cellic CTec; format: biochemical; conditions: cellobiose as substrate, 50° C.
Description: as §1, §2, §3

[11] = system: A. niger CCRC31494 beta-glucosidase; conditions: hydrolysis of cellobiose, 40° C., pH 4.0; cited from earlier work
[12] = system: Novozym 188 beta-glucosidase (Aspergillus niger), commercial preparation; assay: Glucose tolerance / product inhibition, Novozym 188; format: biochemical
Description: (§4) For testing glucose tolerance, 5 mM pNPG in NaCltrate buffer pH 4.8 was used as substrate with different glucose amounts added, ranging final glucose concentrations of 0-280 mM. The remaining activity (glucose tolerance) was measured spectrophotometrically by release of pNP at 50° C. reaction conditions, as described earlier. Triple determinations were performed. […] Triple determinations were performed.

[13] = target: T1, Aspergillus saccharolyticus CBS 127449 beta-glucosidase BGL1, his-tagged, expressed in T. reesei, SEQ ID NO: 3 (without signal peptide SEQ ID NO: 4); assay: Glucose inhibition, purified BGL1; format: biochemical; conditions: pNPG as substrate (5 mM), 50° C., pH 4.8
Description: as §4
The his-tagged beta-glucosidases were purified on the ÄKTApurifier system with UNICORN software, using a HisTrap HP 5 ml […] column (GE Healthcare), run at a flow rate of 5 ml/min. The column was equilibrated with 5CV of binding buffer (20 mM sodium phosphate, 0.5M NaCl, pH 7.4), 100 ml sample was loaded onto the column, followed by washing with binding buffer till the absorbance reached the baseline. The his-tagged beta-glucosidases were eluted with 3CV elution buffer (20 mM sodium phosphate, 0.5M NaCl, 500 mM imidazole, pH 7.4) and the peak (1 CV) collected by monitoring the absorbance.
Michaelis Menten kinetics, glucose tolerance, termostability, pH optimum, and cellodextrin hydrolysis were carried out as described in EXAMPLE 1.

[14] = system: Cellic CTec beta-glucosidases, commercial preparation; assay: Glucose tolerance / product inhibition, Cellic CTec; format: biochemical
Description: as §4

[15] = system: Aspergillus saccharolyticus (strain AP, CBS 127449) beta-glucosidases, crude enzyme extract; assay: Glucose tolerance / product inhibition, crude extract of strain AP; format: biochemical
Description: The fungal strain AP/Aspergillus saccharolyticus was grown on potato dextrose agar (Sigma) for sporulation. Spores were harvested after 7 days of growth by adding sterile water to the plate and scrape on the surface of the culture. The heavy spore suspension was filtered through Myra cloth. Two ml of the spore solution was inoculated into 200 ml seed medium (2.0 g/l wheat bran, 5 g/l corn steep powder, 0.25 g/l yeast extract, 0.75 g/l peptone, 1.4 g/l (NH4)2SO4, 2.0 g/l KH2PO4, 0.4 g/l CaCl2 2H2O, 0.3 g/l MgSO4H2O, 5.0 mg/l FeSO4, 1.6 mg/l MnSO4 7H2O, 1.4 mg/l ZnSO4 7H2O, 2.0 CoCl2 6H2O) in an 500 ml Erlenmeyer flask, and incubated at 30° C. for 2 days, shaking at 160 rpm. Solid state fermentation at approximately 30% TS was carried out adding 100 ml of the cultivated seed medium to 1 l of a solid state fermentation medium comprising of 343 g wheat bran (TS of 87.4%), 9 g corn steep powder, 557 ml Czapek liquid (3 g/l NaNO3, 1 g/l K2HPO4, 0.5 g/l KCl, 0.5 g/l MgSO4 7H2O, 0.01 g/l FeSO4 7H2O) (Samson et al., 2004a). […] The samples were incubated at 30° C. without shaking. After 7 days incubation, liquid was extracted from the medium by pressing the medium by hand using gloves. The extract was centrifuged at 10000 g, and the supernatant filtered through Whatman filter paper.
[…] The remaining activity (glucose tolerance) was measured spectrophotometrically by release of pNP at 50° C. reaction conditions, as described earlier. Triple determinations were performed. […] Triple determinations were performed.

[16] = cellobiose, jointly for A. phoenicis, A. niger, A. carbonarius (Jager et al., 2001)
[17] = hydrolysis of cellobiose, 50° C., pH 4.0
[18] = cellobiose as substrate, product and substrate in equal concentrations
[19] = cellobiose as substrate, twice the concentration of glucose compared to cellobiose
[20] = pNPG as substrate, product concentration 12 times higher than the substrate concentration

OC[C@H]1O[C@@H](O[C@H]2[C@H](O)[C@@H](O)C(O)O[C@@H]2CO)[C@H](O)[C@@H](O)[C@@H]1O (some centres unmarked) [cellobiose]
Km [1]: 1000 µM | Vmax [2]: 36.5 U/mg | Km ([3]; pH 4.8, Hanes-Wolf plot): 1060 µM | Vmax ([3]; pH 4.8, per total protein): 7.5 U/mg | Km [4, 16]: 2000 to 3000 µM | Vmax [4, 17]: 38.8 U/mg | Km [5, 16]: 2000 to 3000 µM | Vmax [5, 17]: 15.4 U/mg | Vmax [6]: 45 U/mg | Km [7]: 1500 to 5600 µM | Km [8, 16]: 2000 to 3000 µM | Vmax [8, 17]: 27.3 U/mg | Km ([9]; pH 4.8, Hanes-Wolf plot): 1090 µM | Vmax ([9]; pH 4.8, per total protein): 11.3 U/mg | Km ([10]; pH 4.8, Hanes-Wolf plot): 1690 µM | Vmax ([10]; pH 4.8, per total protein): 22.9 U/mg | Vmax [11]: 5.27 U/mg

OC[C@H]1OC(O)[C@H](O)[C@@H](O)[C@@H]1O (some centres unmarked) [glucose]
glucose concentration at half the maximum activity, relative to substrate concentration ([12]; 5 mM pNPG as substrate): 12 × the substrate concentration | IC50 ([12]; 5 mM pNPG as substrate, 50° C., pH 4.8, calculated, read-out: glucose concentration at half the maximum activity): 60 mM | remaining activity with glucose [12, 18]: around 80% | remaining activity with glucose [12, 19]: 50% | remaining activity with glucose [12, 20]: below 40% | product (glucose) concentration at reduction in activity to 50% [13]: 30 times greater than the substrate concentration | glucose concentration at half the maximum activity, relative to substrate concentration ([14]; 5 mM pNPG as substrate): 23 × the substrate concentration | remaining activity with glucose [14, 20]: approx 75% | glucose concentration at half the maximum activity, relative to substrate concentration ([15]; 5 mM pNPG as substrate): 36 × the substrate concentration | remaining activity with glucose [15, 18]: around 80% | remaining activity with glucose [15, 19]: 50% | remaining activity with glucose [15, 20]: > 80%
